Reference: patent US20240139167A1, “LYSOSOME-ASSOCIATED MEMBRANE PROTEIN TARGETING COMPOUNDS AND USES THEREOF” (HADASIT MEDICAL RESEARCH SERVICES AND DEVELOPMENT LTD., priority 2021, published 2024)

Tests used:
[1] = Pharmacokinetics, tissue levels by LC-MS/MS; format: in vivo, mice; conditions: 250 mg/kg subcutaneous
Text: (§1) FIGS. 2A-2C include images and graphs of histopathological effects of Compound 1 and its pharmacokinetics: right panel present images of indicated tissues of sacrificed mice and stained for PG (arrows) with PAS following treatment with diastase; left panel, presents bar graphs quantifying PAS staining, based on analysis of 4 sections from each tissue in n=2 wild type, n=7 Gbe^ys/ys vehicle-treated, and n=9 Compound 1-treated mice (2A); bar graph quantifying total glycogen in the respective tissues (2B); graph of Compound 1pharmacokinetics (2C); 9 months old Gbe^ys/ys mice were SC-injected with 150 μL of Compound 1 at 250 mg/kg. Mice were sacrificed 30-, 60-, 90-, and 210-min post injection and the indicated tissues were removed, as well as 200 μL of serum drawn. […] Shown are means and SEM of results obtained from n=3 mice at each time point.
For pharmacokinetic analysis, 100 μL serum as well as brain, kidney, hind limb quad muscle, heart, liver, and spleen tissues were collected, homogenized, and extracted with acetonitrile following established guidelines. Calibration curves were made with 0, 1, 10, 100, and 1,000 ng/ml Compound 1 in 1 mg/ml solutions of 4-tert-butyl-2-(4H-1,2,4-triazol-4-yl)phenol (ChemBridge) as internal standard (IS). Tissue samples were then dissolved in 1 mg/ml IS solutions and spiked with 0-1,000 ng/ml Compound 1 to generate standard curves from which tissue levels of Compound 1 were determined. Samples were analyzed by the LC-MS/MS Sciex Triple Quad™ 5500 mass spectrometer.
Pharmacokinetic analysis is instrumental for explaining the effects of Compound 1 in-situ regardless of its innate capacity to modify polyglucosans in isolated cells. The reason for that is that timing of arrival, distribution and stability in the tissue are key determinants of the in-situ activity of any pharmacological agent. To determine the distribution and kinetic parameters of Compound 1 in different tissues, the inventors have treated Gbe^ys/ys mice with 250 mg/kg Compound 1 via subcutaneous injection, as done in the efficacy experiments. Mice were then sacrificed 0, 30-, 60-, 90-, and 210-min post administration and 100 μL serum as well as brain, kidney, hind limb skeletal muscle, heart, liver, and spleen tissues were collected, homogenized, extracted and their Compound 1 levels were analyzed by liquid chromatography tandem mass spectrometry (LC-MS/MS). The differential effects of Compound 1 on glycogen and polyglucosan content in the different tissues match its differential distribution and dwell time in each respective tissue. […] However, those levels persist up until 60 minutes post injection, which might account for the Compound 1-mediated reduction in polyglucosan, and glycogen content observed in these tissues. […] Based on the sampling times used, time to C. was 30 min for all the tissues studied indicating similar rate of absorption to all these tissues. The highest C. is observed in liver and kidney matching their well-established rapid perfusion.

[2] = test system: HC and APBD patient skin fibroblasts; test: Seahorse ATP Rate Assay under glycogen burden; format: cell-based, human
Method: FIGS. 4A-4D include a bar graph of PAS staining for total glycogen in skin fibroblasts from different APBD patients (4A), images of PAS staining for total glycogen in APBD87 fibroblasts glucose-starved for 48 h (left), or glucose starved and then replenished for the last 24 h to induce glycogen burden (right) (4B), image acquisition was done by Nikon Eclipse Ti2 microscope using a 40×PlanFluor objective and CY3 filter; graph of image-based multiparametric phenotyping of APBD fibroblasts under 48 h glucose-starvation, or starvation and glucose replenishment as in 4B (4C), level of significance p=0.01; and bar graph of glycolytic and mitochondrial ATP production determined by Agilent's Seahorse machine and ATP rate assay kit (4D). Healthy control (HC) and APBD patient fibroblasts were untreated or treated with 10 μM Compound 1 for 48 h (chronic), or on assay for 20 min (acute). Readings were normalized to cell number as determined by Crystal Violet staining. Shown are mean and SD values based on n=6 repeats.
The RQ shift towards carbohydrate catabolism observed in vivo prompted the inventors to investigate whether carbohydrate catabolism is also up-modulated intracellularly. To that end, and especially since glycogen levels are highly versatile among fibroblasts derived from different APBD patients (FIG. 4A), the inventors first aimed at inducing a physiological glycogen overload, or glycogen burden condition, equivalent to the one found in tissues. […] Therefore, the inventors selected this glycogen burden condition to analyze catabolism at a cell level using an ATP Rate Assay (Agilent's Seahorse ATP Rate Assay). The results

Gbe^ys/ys mice = test: Histological PG (PAS after diastase) and biochemical glycogen determination in tissues; format: in vivo
Text: as §1
Brain, heart, muscle, nerve fascicles (peripheral nerves), and liver tissues from wt and Compound 1 and vehicle treated Gbe^ys/ys animals were separated to characterize the histopathological effects of Compound 1. Tissues were extracted, fixed, embedded in paraffin, and sectioned. After deparaffinization, sections were treated for 5 min with 0.5% diastase to digest non-polyglucosan glycogen, leaving behind polyglucosan. Sections were then washed, stained for polyglucosan with PAS and counterstained with hematoxylin, and analyzed by light microscopy, all as previously described. […] Following digestion, total glycogen was determined based on the glucose content using the Sigma GAGO20 kit.
This information is important for determining whether the expected mode of action of Compound 1 discovered ex vivo -reduction of polyglucosan levels in fibroblasts — also takes place in vivo and if so in which tissues. […] Following diastase treatment to digest non-polyglucosan glycogen, leaving behind polyglucosan, sections were stained for polyglucosan with periodic acid-Schiff s (PAS) reagent, counterstained with hematoxylin and analyzed by light microscopy.

[3] = both HC and APBD fibroblasts, glycogen burden
[4] = PAS after diastase, sacrifice at 9.5 months

COCCN(Cc1sccc1C)C(=O)c1cc(C)nc(O)c1 [Compound 1]
C. in liver and kidney, rank among tissues [1]: highest
C. in skeletal quadriceps muscle, rank among tissues [1]: lowest
accumulation in muscle [1]: negligible accumulation
levels in heart and brain [1]: intermediate levels
persistence of levels in heart and brain post injection [1]: ≤ 60 min
time to C. ([1]; all the tissues studied): 30 min
half-life ([1]; mouse, liver, sc, Gbe^ys/ys mice): > 3 h
augmenting glycolytic contribution to ATP production: acute on assay supplementation vs 48 h pretreatment [2]: more effective
overall ATP production [2, 3]: increased
relative contribution of glycolytic ATP production at the expense of mitochondrial (OxPhos) ATP production [2, 3]: increased
muscle polyglucosans (Gbe^ys/ys mice; [4]): no apparent effect
polyglucosan levels in brain, liver, heart, and peripheral nerve (Gbe^ys/ys mice; [4]): significant reduction in polyglucosan levels
total glycogen levels, determined biochemically (Gbe^ys/ys mice; same tissues): correspondingly affected
